Test results: ChEMBL document CHEMBL2074265, “Isolation and characterization of Caco-2 subclones expressing high levels of multidrug resistance protein efflux transporter” (Pharm Res, 2003)
pKi: −log10 of the molar value.

Molecular target: ATP-dependent translocase ABCB1 (Homo sapiens, UniProt P08183)
Sequence (P08183 whole entry): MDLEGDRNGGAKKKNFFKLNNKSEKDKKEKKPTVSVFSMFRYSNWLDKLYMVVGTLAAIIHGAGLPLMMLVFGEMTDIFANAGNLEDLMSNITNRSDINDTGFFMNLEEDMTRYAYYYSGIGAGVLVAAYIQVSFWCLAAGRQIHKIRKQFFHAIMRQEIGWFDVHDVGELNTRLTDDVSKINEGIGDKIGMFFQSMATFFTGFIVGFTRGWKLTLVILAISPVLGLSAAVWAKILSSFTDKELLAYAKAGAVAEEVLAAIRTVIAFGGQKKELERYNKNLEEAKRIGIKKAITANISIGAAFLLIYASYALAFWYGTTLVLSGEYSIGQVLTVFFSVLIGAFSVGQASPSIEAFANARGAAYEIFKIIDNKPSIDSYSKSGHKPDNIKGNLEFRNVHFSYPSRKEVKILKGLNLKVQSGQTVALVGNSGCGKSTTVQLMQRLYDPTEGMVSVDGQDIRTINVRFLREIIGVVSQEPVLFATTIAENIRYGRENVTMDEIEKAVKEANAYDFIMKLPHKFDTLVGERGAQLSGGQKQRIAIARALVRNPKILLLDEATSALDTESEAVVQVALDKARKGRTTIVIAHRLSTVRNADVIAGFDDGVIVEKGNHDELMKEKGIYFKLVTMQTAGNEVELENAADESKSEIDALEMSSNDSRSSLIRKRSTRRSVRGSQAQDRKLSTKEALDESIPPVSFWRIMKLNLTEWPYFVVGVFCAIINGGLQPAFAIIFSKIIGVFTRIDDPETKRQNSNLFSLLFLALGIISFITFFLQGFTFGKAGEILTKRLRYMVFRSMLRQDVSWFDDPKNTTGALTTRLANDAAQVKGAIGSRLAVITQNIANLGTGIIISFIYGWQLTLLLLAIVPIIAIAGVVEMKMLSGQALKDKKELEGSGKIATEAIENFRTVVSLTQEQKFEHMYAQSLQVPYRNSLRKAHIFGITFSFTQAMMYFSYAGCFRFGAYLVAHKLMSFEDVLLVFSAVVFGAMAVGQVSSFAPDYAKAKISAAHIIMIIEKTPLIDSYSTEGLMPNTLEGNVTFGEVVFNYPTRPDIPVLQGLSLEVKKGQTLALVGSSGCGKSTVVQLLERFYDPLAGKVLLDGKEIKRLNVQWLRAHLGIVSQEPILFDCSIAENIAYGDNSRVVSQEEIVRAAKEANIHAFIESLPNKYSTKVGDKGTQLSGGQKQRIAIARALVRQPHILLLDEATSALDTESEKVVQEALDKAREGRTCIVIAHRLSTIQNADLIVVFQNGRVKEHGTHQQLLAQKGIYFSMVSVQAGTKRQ
Description: TP_TRANSPORTER: transepithelial transport of digoxin (basal to apical) in Caco-2 cells

A pKi of 5.64 was found for `COC(=O)[C@H]1[C@H]2C[C@@H]3c4[nH]c5cc(OC)ccc5c4CCN3C[C@H]2C[C@@H](OC(=O)c2cc(OC)c(OC)c(OC)c2)[C@@H]1OC` [RESERPINE] in this work.
